# Results published in patent US8765728B2, “[1,5]-diazocin derivatives” (MelliTech, priority 2009, dated 2014).
# Tested on: Min6 cell
# Test: Insulin secretion response of beta cell line to formula I compounds (insulin ELISA)
# Type: cell-based
# Details: rank according to % increase versus control at most effective dose
# In short: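 After compound or vehicle exposure, Min6 cells were held 2 h in glucose-free medium and preincubated 30 min at 37° C in glucose-free KRBH (pH 7.4, 0.1% BSA). They were then incubated 30 min at 37° C in KRBH with varying glucose. Secreted insulin and acid-ethanol-extracted intracellular insulin were measured by ELISA.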
row,Compound,Insulin secretion (Min6 cell) Range 1 to 5
1,"COc1ccc2c(c1)CN(C1CC1)C(=O)CCN2C[C@H](O)COc1ccc(Cl)cc1 [Compound 90, (S)-1-(3-(4-chlorophenoxy)-2-hydroxypropyl)-5-cyclopropyl-8-methoxy-2,3,5,6-tetrahydrobenzo[b][1,5]diazocin-4(1H)-one]",1 (1: 90-110% of control)
2,"O=C(c1ccno1)N1CCC(=O)N(C2CC2)Cc2c1ccc1c2OCCO1 [Compound 91, 11-cyclopropyl-7-(isoxazol-5-ylcarbonyl)-2,3,8,9,11,12-hexahydro[1,4]dioxino[2,3-h][1,5]benzodiazocin-10(7H)-one]",1 (1: 90-110% of control)
3,"O=C(c1ncoc1-c1ccccc1)N1CCC(=O)N(C2CC2)Cc2c1ccc1c2OCCO1 [Compound 92, 11-cyclopropyl-7-[(5-phenyl-1,3-oxazol-4-yl)carbonyl]-2,3,8,9,11,12-hexahydro[1,4]dioxino[2,3-h][1,5]benzodiazocin-10(7H)-one]",1 (1: 90-110% of control)
4,"O=C(CN1CCC(=O)N(C2CC2)Cc2c1ccc1c2OCCO1)c1cccc(F)c1 [Compound 93, 11-cyclopropyl-7-[2-(3-fluorophenyl)-2-oxoethyl]-2,3,8,9,11,12-hexahydro[1,4]dioxino[2,3-h][1,5]benzodiazocin-10(7H)-one]",1 (1: 90-110% of control)
5,"O=C(CN1CCC(=O)N(C2CC2)Cc2c1ccc1c2OCCO1)c1ccc(Cl)cc1 [Compound 94, 7-[2-(4-chlorophenyl)-2-oxoethyl]-11-cyclopropyl-2,3,8,9,11,12-hexahydro[1,4]dioxino[2,3-h][1,5]benzodiazocin-10(7H)-one]",1 (1: 90-110% of control)
6,"O=C1CCN(CC(O)COc2ccccc2)c2ccc3c(c2CN1C1CC1)OCCO3 (stereo not drawn) [Compound 95, 11-cyclopropyl-7-(2-hydroxy-3-phenoxypropyl)-2,3,8,9,11,12-hexahydro[1,4]dioxino[2,3-h][1,5]benzodiazocin-10(7H)-one]",1 (1: 90-110% of control)
7,"O=C1CCN(CC(O)c2cccc(F)c2)c2ccc3c(c2CN1C1CC1)OCCO3 (stereo not drawn) [Compound 96, 11-cyclopropyl-7-[2-(3-fluorophenyl)-2-hydroxyethyl]-2,3,8,9,11,12-hexahydro[1,4]dioxino[2,3-h][1,5]benzodiazocin-10(7H)-one]",3 (3: 120-140% of control)
8,"O=C1CCN(CC(O)c2ccc(Cl)cc2)c2ccc3c(c2CN1C1CC1)OCCO3 (stereo not drawn) [Compound 97, 7-[2-(4-chlorophenyl)-2-hydroxyethyl]-11-cyclopropyl-2,3,8,9,11,12-hexahydro[1,4]dioxino[2,3-h][1,5]benzodiazocin-10(7H)-one]",2 (2: 110-120% of control)
9,"COc1ccc2c(c1)CN(C1CC1)C(=O)CCN2C(=O)c1ncoc1-c1ccccc1 [Compound 98, 5-cyclopropyl-8-methoxy-1-(5-phenyloxazole-4-carbonyl)-2,3,5,6-tetrahydrobenzo[b][1,5]diazocin-4(1H)-one]",2 (2: 110-120% of control)
10,"COc1ccc2c(c1)CN(C1CC1)C(=O)CCN2C(=O)c1cc(C)nn1C [Compound 99, 5-cyclopropyl-1-(1,3-dimethyl-1H-pyrazole-5-carbonyl)-8-methoxy-2,3,5,6-tetrahydrobenzo[b][1,5]diazocin-4(1H)-one]",1 (1: 90-110% of control)
11,"COc1ccc2c(c1)CN(C1CC1)C(=O)CCN2C(=O)c1c(C)noc1C [Compound 100, 5-cyclopropyl-1-(3,5-dimethylisoxazole-4-carbonyl)-8-methoxy-2,3,5,6-tetrahydrobenzo[b][1,5]diazocin-4(1H)-one]",1 (1: 90-110% of control)
12,"COc1ccc2c(c1)CN(C1CC1)C(=O)CCN2C(=O)c1cnccn1 [Compound 101, 5-cyclopropyl-8-methoxy-1-(pyrazine-2-carbonyl)-2,3,5,6-tetrahydrobenzo[b][1,5]diazocin-4(1H)-one]",2 (2: 110-120% of control)
